Columns and labels:
A673 cells = test: Dose-response cell proliferation, crystal violet assay, 72 h; assay type: cell-based; details: ratio of IC50 in NHDF cells to IC50 in A673 cells
Protocol: Small molecule splicing modulators were tested in a dose-response assay using A673 cells and NHDF cells.
A673 cells or NHDF cells were first plated in 96-well plastic tissue culture plates (10,000 cells per well). The cells were treated with vehicle alone (DMSO), or increasing concentrations of SMSM compounds for 72 h. Following treatment, cell proliferation was determined using a crystal violet assay. The relative cell proliferation at each concentration was determined.

[1] = Maximum tolerable dose study; assay type: in vivo; details: mice, 3 per group
Protocol: Survival of mice after administration of SMSMs after 10 or 11 days was assessed.
Tolerance of the drug treatments was determined by measuring the weight of the mice during the period of drug administration. Body weight was measured prior to tumor inoculation and prior to the treatment administration and then daily. The changes in the final weight of the mice for the SMSM treatments were determined.

A673 xenografts = test: A673 xenograft tumor growth inhibition; assay type: in vivo; details: immunocompromised nude mice with pre-existing A673 xenografts
Protocol: Dose range and time course studies comparing anti-neoplastic effects of SMSM-167 and SMSM-151 against vehicle were conducted.
Female NCrNu mice were used. Age range of enrolment was 7-10 weeks. A total of 75animals were for the studies.
The A673 tumor cell line was maintained in vitro as a monolayer culture. […] The cells growing in an exponential growth phase were harvested and counted for tumor inoculation.
Each mouse were inoculated into aright flank with the single cell suspension of 95% viable tumor cells (5×10^6 cells/mouse) in serum-free RPMI 1640 Media for tumor development. Treatments were administered when mean tumor size reached approximately 75 mm^3. […]
Body weight were measured prior to tumor inoculation and prior to the treatment administration and then daily. Tumor size were measured 2-3 times per week in two dimensions using a caliper, and the volume were expressed in mm^3 using the formula: V=0.5×a×b^2 where a and b are the long and short diameters of the tumor, respectively. […]
Studies were performed to assess the effects of in vivo SMSM treatment on glioblastoma, breast, pancreatic, prostate, melanoma, lymphoma and Ewing sarcoma tumors. […] After SMSM treatment, mRNA was isolated from the xenografts and was analyzed by qRT-PCR.
Tumor size was measured 2 times per week in two dimensions using a caliper. […]

Row | Structure (SMILES) | Ratio NHDF/A673 IC50 (A673 cells) | Outcome ([1]; IP 1 mg/kg QDx11) | Outcome ([1]; PO 10 mg/kg BIDx11) | Outcome ([1]; PO 10 mg/kg QDx11) | tumor growth inhibition (TGI), in words (A673 xenografts)
1 | CN(c1ccc(-c2ccc(-c3cn[nH]c3)cc2O)nn1)[C@H]1C[C@]2(C)CC[C@](C)(C1)N2 [compound 151, 2-(6-(((1R,3s,5S)-1,5-dimethyl-8-azabicyclo[3.2.1]octan-3-yl)(methyl)amino)pyridazin-3-yl)-5-(1H-pyrazol-4-yl)phenol] | >350 | All survived | All survived | All survived | led to tumor growth inhibition
2 | CN(c1ccc(-c2ccc(-c3cn[nH]c3)cc2O)nn1)[C@@H]1C[C@H]2CCC[C@@H](C1)N2 [compound 160, 2-(6-(((1R,3s,5S)-9-azabicyclo[3.3.1]nonan-3-yl)(methyl)amino)pyridazin-3-yl)-5-(1H-pyrazol-4-yl)phenol] |  |  |  |  | led to tumor growth inhibition
